EP4806899A1, “FUSED RING DERIVATIVE, PREPARATION METHOD THEREFOR AND USE THEREOF IN MEDICINE” (Shanghai Qilu Pharmaceutical Research and Development …, priority 2023, dated 2025)

Tests used:
human CYP11B2 enzyme = biological target: T1, human CYP11B2 enzyme (Homo sapiens, UniProt P19099); test: Enzyme inhibition activity assay in G402 cells stably expressing human CYP11B2 (aldosterone production from 11-DOC, LC/MS); assay type: cell-based; details: 1 µM 11-DOC, 16 hours, aldosterone detected
T1 construct: the ORF of human CYP11B1 or CYP11B2 were transfected into G402 cells; expressed in transfected cells
T1 sequence (P19099 25-503): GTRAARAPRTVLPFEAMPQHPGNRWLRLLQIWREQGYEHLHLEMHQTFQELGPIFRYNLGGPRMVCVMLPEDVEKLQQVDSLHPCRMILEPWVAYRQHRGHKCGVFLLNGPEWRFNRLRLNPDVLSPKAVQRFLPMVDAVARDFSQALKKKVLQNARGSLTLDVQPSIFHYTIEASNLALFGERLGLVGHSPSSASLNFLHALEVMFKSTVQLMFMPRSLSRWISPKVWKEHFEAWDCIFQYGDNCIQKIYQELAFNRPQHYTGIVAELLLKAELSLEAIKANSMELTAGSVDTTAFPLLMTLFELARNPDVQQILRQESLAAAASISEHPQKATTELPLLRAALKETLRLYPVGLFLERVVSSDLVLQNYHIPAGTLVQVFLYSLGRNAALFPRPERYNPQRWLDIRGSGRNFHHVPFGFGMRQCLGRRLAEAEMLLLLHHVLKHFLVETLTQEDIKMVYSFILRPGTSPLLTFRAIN
Text: (§1) G402 cells (ATCC, CRL 1440) are epithelioid cells isolated from the kidney of a patient with renal failure and are a type of leiomyoblastoma. For the screening of highly specific CYP11B2 inhibitors, we specifically used G402 cell lines stably expressing human CYP11B2 enzyme or human CYP11B1 enzyme for experimental development.
(§2) Construction of Stably Transfected Cell Lines: Expression plasmids containing suitable promoters, suitable drug resistance markers, and the ORF of human CYP11B1 or CYP11B2 were transfected into G402 cells using standard techniques. The cells were then screened using the specific puromycin resistance marker. Monoclonal cells stably expressing human CYP11B2 were selected for expansion, and 11-deoxycorticosterone (11-DOC) was used as the specific substrate to evaluate enzyme activity based on aldosterone production. Monoclonal cells stably expressing human CYP11B1 were selected for expansion, and 11-deoxycortisol (11-DC) was used as the specific substrate, with cortisol production as the detection target for specific enzyme activity evaluation. The G402 cell lines stably expressing CYP11B1/CYP11B2 were cultured at 37 °C, 5% CO2, 95% air in complete medium (McCoy's 5A + 10% FBS + 1% PS + 0.5 µg/mL puromycin).
(§3) Enzyme Inhibition Activity Assay: CYP11B1 G402/CYP11B2 G402 cells were spread out flatly in cell culture plates. After 24 hours, the medium was changed to an enzyme testing system (DMEM/F12 + 2.5% charcoal-stripped FCS). Small molecule inhibitors at various concentrations were added. After 1 hour, appropriate concentrations of specific substrates (1 µM 11-DOC / 1 µM 11-DC) were added and co-incubated with the cells for 16 hours. Cells were then collected, and specific products were detected using LC/MS methods with an AB SCIEX TRIPLE QUAD 5500+, CTO-40S instrument (CYP11B2 enzyme detecting aldosterone; CYP11B1 enzyme detecting cortisol).
(§4) The IC50 values of the compounds were determined based on the G402 testing system. The dose-dependent inhibition of enzyme activity was calculated by plotting the added inhibitor concentration (x-axis) against the percentage of product inhibitory activity relative to the control group (y-axis) based on product formation at various compound concentrations. The following data were then fitted using the least squares method with XLfit 5.5.0 for a four-parameter logistic curve fit: [formula] • Y-axis: Percentage of product inhibitory activity relative to the control group; • logIC50: IC50 was determined using XLFit.
(§5) The maximum enzyme activity corresponds to the amount of control product steroid/aldosterone in the absence of inhibitor, set as 100%. The minimum enzyme activity corresponds to the amount of reference control product steroid/aldosterone in the presence of inhibitor. Table 3 Inhibitory Activity of the Compounds of the Present Disclosure on CYP11B2 and CYP11B1

human CYP11B1 enzyme = biological target: T2, human CYP11B1 enzyme (Homo sapiens, UniProt P15538); test: Enzyme inhibition activity assay in G402 cells stably expressing human CYP11B1 (cortisol production from 11-DC, LC/MS); assay type: cell-based; details: 1 µM 11-DC, 16 hours, cortisol detected
T2 construct: the ORF of human CYP11B1 or CYP11B2 were transfected into G402 cells; expressed in transfected cells
T2 sequence (P15538 25-503): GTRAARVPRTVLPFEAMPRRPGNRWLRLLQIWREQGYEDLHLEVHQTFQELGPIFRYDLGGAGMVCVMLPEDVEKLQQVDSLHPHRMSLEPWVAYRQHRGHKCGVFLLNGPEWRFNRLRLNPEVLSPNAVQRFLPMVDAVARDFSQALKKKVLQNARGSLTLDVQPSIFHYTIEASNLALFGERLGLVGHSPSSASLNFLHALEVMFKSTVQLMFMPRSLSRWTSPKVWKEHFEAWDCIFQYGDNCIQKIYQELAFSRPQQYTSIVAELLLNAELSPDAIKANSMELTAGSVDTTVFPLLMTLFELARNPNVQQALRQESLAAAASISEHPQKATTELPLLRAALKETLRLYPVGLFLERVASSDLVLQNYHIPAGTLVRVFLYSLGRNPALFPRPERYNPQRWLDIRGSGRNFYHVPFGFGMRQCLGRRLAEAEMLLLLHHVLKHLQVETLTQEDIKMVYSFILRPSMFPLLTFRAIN
Text: as §1, §2, §3, §4, §5

Structure (SMILES) | IC50 (human CYP11B2 enzyme) [nM] | IC50 (human CYP11B1 enzyme) [nM]
[2H]C([2H])([2H])OC(=O)N[C@@H]1CCCc2c(-c3ccc4c(ccc(=O)n4C)c3)cncc21 [Compound A27] | 5 | 213
COC(=O)N[C@@H]1CCOc2c(-c3ccc4c(c3)CCC(=O)N4C)cncc21 [Compound A14] | 2.3 | 202
[2H]C([2H])([2H])OC(=O)N[C@@H]1CCCc2c(-c3ccc4c(c3)OCC(=O)N4C)cncc21 [Compound A29] | 8.8 | 479
CN1CCN([C@@H]2CCCc3c(-c4ccc5c(c4)CCC(=O)N5C)cncc32)C1=O [Compound D10] | 4.7 | 275
COC(=O)N[C@@H]1CCOc2c(-c3ccc4c(c3)cc(C#N)n4C)cncc21 [Compound A35] | 1.4 | 184
CCC(=O)N[C@@H]1CCCc2c(-c3ccc4c(c3)OCC(=O)N4C)cncc21 [Compound C09] | 31 | 3850
[2H]C([2H])([2H])NC(=O)N[C@@H]1CCCc2c(-c3ccc4c(c3)CCC(=O)N4C)cncc21 [Compound D08] | 11 | 803
CCC(=O)N[C@@H]1CCCc2c(-c3ccc4c(cnn4C)c3)cncc21 [Compound C21] | 26.5 | 
CCC(=O)N[C@@H]1COCc2c(-c3ccc4c(c3)CCC(=O)N4C)cncc21 [Compound A01] | 41.7 | 
COCC(=O)N[C@@H]1CCCc2c(-c3ccc4c(c3)CCC(=O)N4C)cncc21 [Compound D06] | 8.2 | 288
CCC(=O)N[C@@H]1CCCc2c(-c3ccc4c(ccc(=O)n4C)c3F)cncc21 [Compound C45] | 33 | 
CCC(=O)N[C@@H]1CCCc2c(-c3ccc4c(ccc(=O)n4C)c3)cncc21 [Compound C04] | 19.2 | 2500
[2H]C([2H])([2H])NC(=O)N[C@@H]1CCOc2c(-c3ccc4c(c3)cc(C#N)n4C)cncc21 [Compound A38] | 2.3 | 283
CNC(=O)N[C@@H]1CCCc2c(-c3ccc4c(c3)CCC(=O)N4C)cncc21 [Compound D01] | 5.9 | 
CCC(=O)N[C@@H]1CCCc2c(-c3cc(Cl)c4c(ccc(=O)n4C)c3)cncc21 [Compound C42] | 11.1 | 4030
COC(=O)N[C@@H]1CCOc2c(-c3ccc4c(c3)COC(=O)N4C)cncc21 [Compound A43] | 6.6 | 572
CCNC(=O)N[C@@H]1CCCc2c(-c3ccc4c(c3)CCC(=O)N4C)cncc21 [Compound D09] | 28.2 | 
[2H]C([2H])([2H])OC(=O)N[C@@H]1CCOc2c(-c3ccc4c(c3)cc(C#N)n4C)cncc21 [Compound A36] | 1.3 | 136
[2H]C([2H])([2H])NC(=O)N[C@@H]1CCOc2c(-c3ccc4c(ccc(=O)n4C)c3)cncc21 [Compound A17] | 23.1 | 
[2H]C([2H])([2H])OC(=O)N[C@@H]1CCOc2c(-c3ccc4c(c3)OCC(=O)N4C)cncc21 [Compound A41] | 28.9 | 
COC(=O)N[C@@H]1CCOc2c(-c3cc(Cl)c4c(ccc(=O)n4C)c3)cncc21 [Compound A53] | 13.1 | 2010

Structure (SMILES) | IC50 (human CYP11B2 enzyme) [nM] | IC50 (human CYP11B1 enzyme) [nM]
[2H]C([2H])([2H])NC(=O)N[C@@H]1CCCc2c(-c3ccc4c(ccc(=O)n4C)c3)cncc21 [Compound A15] | 9.9 | 
CCC(=O)N[C@@H]1CCOc2c(-c3cc(F)c4c(c3)cc(C#N)n4C)cncc21 [Compound A55] | 4.5 | 
CCC(=O)N[C@@H]1CCCc2c(-c3cnc4c(c3)cc(C#N)n4C)cncc21 [Compound C37] | 11.4 | 1720
[2H]C([2H])([2H])OC(=O)N[C@@H]1CCCc2c(-c3ccc4c(c3)CCC(=O)N4C)cncc21 [Compound D15] | 2.5 | 128
[2H]C([2H])([2H])OC(=O)N[C@@H]1CCOc2c(-c3ccc4c(c3)CCC(=O)N4C)cncc21 [Compound A13] | 4.5 | 381
CCC(=O)N[C@@H]1CCCc2c(-c3ccc4c(c3)CCCC(=O)N4C)cncc21 [Compound C15] | 24.5 | 2550
CN1C(=O)CCc2cc(-c3cncc4c3CCC[C@H]4N3CCC4(CC4)C3=O)ccc21 [Compound D14] | 13 | 
CCC(=O)N[C@@H]1CCOc2c(-c3ccc4c(c3)OCC(=O)N4C)cncc21 [Compound A19] | 35.5 | 
[2H]C([2H])([2H])NC(=O)N[C@@H]1CCOc2c(-c3ccc4c(c3)OCC(=O)N4C)cncc21 [Compound A32] | 34.7 | 
COC(=O)N[C@@H]1CCCc2c(-c3ccc4c(c3)CCC(=O)N4C)cncc21 [Compound D05] | 3.4 | 
CCC(=O)N[C@@H]1CCCc2c(-c3ccc4c(ccc(=O)n4C(F)F)c3)cncc21 [Compound C33] | 32.7 | 
CN1C(=O)CCc2cc(-c3cncc4c3CCC[C@H]4N3CCCC3=O)ccc21 [Compound D03] | 8.1 | 
CCC(=O)NC1CCCc2c(-c3cnc4c(c3)CCCN4C(N)=O)cncc21 (stereo not drawn) [Compound C02] | 16.9 | 
CCC(=O)N[C@@H]1CCCc2c(-c3ccc4c(c3)cc(F)c(=O)n4C)cncc21 [Compound C16] | 43.3 | 
CN(C)C(=O)N[C@@H]1CCCc2c(-c3ccc4c(c3)OCC(=O)N4C)cncc21 [Compound A26] | 19 | 
CCC(=O)N[C@@H]1CCOc2c(-c3cc(F)c4c(ccc(=O)n4C)c3)cncc21 [Compound A20] | 29.1 | 
CN1C(=O)CCc2cc(-c3cncc4c3CCC[C@H]4NC(=O)N3CCC3)ccc21 [Compound D17] | 33.3 | 
COC(=O)N[C@@H]1CCOc2c(-c3ccc4c(c3)OCC(=O)N4C)cncc21 [Compound A44] | 21.9 | 
CCC(=O)N[C@@H]1CCOc2c(-c3cc(Cl)c4c(c3)cc(C#N)n4C)cncc21 [Compound A56] | 11.6 | 
C[C@@H](F)C(=O)N[C@@H]1CCCc2c(-c3ccc4c(c3)CCC(=O)N4C)cncc21 [Compound D07-P1] | 33.9 | 
CCC(=O)N[C@@H]1CCCc2c(-c3ccc4c(c3)CC(=O)N4C)cncc21 [Compound C24] | 24.2 | 
